Measurements taken from US10842884B2, “Endosomolytic agents for gene therapy” (UCB Biopharma SRL, priority 2016, dated 2020).
Counter-ions that a name gives are not always drawn.

Experiments:
[1] = tested on: Chinese Hamster Ovary (CHO) cells; assay: Transfection of CHO cells using lipopolyplexes, β-galactosidase reporter gene expression; assay type: cell-based
Source text: Transfection of Chinese Hamster Ovary (CHO) Cells Using Lipopolyplexes
Plasmid pEGlacZ containing the bacterial β-galactosidase gene under the control of the human cytomegalovirus immediate early promoter was constructed using standard molecular cloning techniques. The 7676 base pair (bp) plasmid was derived by cleavage of pGFP-N1 (Clontech) with HindIII and BclI to remove the reporter gene fragment. The β-galactosidase coding region from pSV-β-galactosidase (Promega) was then inserted via a HindIII to BamHI fragment. Plasmid DNA was then purified using an anion-exchange column (Qiagen Ltd). The average molecular weight per base pair was calculated to be 620.84 Da (310.5 Da for a monophosphorylated nucleotide). The amount of negative charge on the plasmid was then determined on the basis that a single negative charge is associated with each nucleotide.
[…] Lipid films were formed by rotary evaporation at 60° C. and further dried on a freeze drier overnight. Rehydration of the lipid film was performed by adding 4 mL of deionised water and […] 1M NaOH at 60° C. with vigorous agitation in the presence of […] diameter glass beads, taking care to maintain pH in the range 7.5 to 8.0, resulting in the formation of multi-lamellar vesicles (MLVs).
Stock solutions of R26 peptide as a DNA condensing agent at 144 μg/ml and plasmid DNA at 60 μg/ml were prepared in de-ionized water. Equal volumes of each were mixed by adding the plasmid DNA drop-wise to the R26 solution with vortexing. The charge ratio of the polyplex was 3.9:1 (peptide positive charged residues to DNA negative charged phosphates).
The polyplex preparation was diluted in 10 mM HEPES buffer pH 8 to 15 μg/ml DNA equivalent. […] Lipopolyplexes were formed by adding equal volumes of polyplex solution drop-wise to liposome suspension with vortexing.
CHO cells were seeded into 24-wellplates at 100 000 cells per well in Opti-MEM (Gibco BRL) media containing 10% dialysed foetal calf serum (FCS, Gibco BRL) and maintained 37° C. in 5% CO2 incubator for 24 h before the experiment. The adherent cells were washed once in Opti-MEM (Gibco BRL) prior to transfection. Washed medium was removed and replaced with 0.5 ml of Opti-MEM to which 167 μl of lipopolyplex was added ([…]). Individual lipopolyplex preparations were tested in triplicate wells. Cells were incubated for a further 4 h at 37° C. in 5% CO2 before removal of the medium and non-cell associated lipopolyplex and addition of 1 ml of fresh medium (Dulbecco's modified Eagle's medium (DMEM), plus glutamate, asparagine, adenosine, guanosine, cytidine, uridine, thymidine and 10% FCS.
Cells were cultured for a further 72 h before harvesting, the medium was aspirated and the cells washed twice with 1 ml phosphate buffered saline. Cells were lysed by the addition of 200 μl per well of lysis buffer (Promega) and the plate was agitated on an orbital mixer for 15 min. The lysates were transferred to individual Eppendorf tubes, taking care to remove attached cells by scraping with a pipette tip prior to removal. Cell debris was removed by centrifugation in a microfuge for 5 min followed by transfer of the supernatant into clean Eppendorf tubes.
Levels of β-galactosidase (β-gal) activity were determined using a colorimetric enzyme assay kit (Promega) as follows: 50 μl of cell extract was incubated with the kit substrate, O-nitrophenyl-β-D-galactopyranoside in buffer solution for 30 min at 37° C. The reaction was stopped by the addition of 150 μl of 1M sodium carbonate and the absorbance measured at 420 nm (Multiskan Ascent plate reader, Labsystems). Absorbance values were interpolated from a calibration curve to give enzyme activity in mU per ml. In turn these values were normalised in reference to lysate protein concentration as determined by a BCA assay kit (Pierce) and expressed as mU of β-gal per mg of protein.
An anionic liposome composition was evaluated comprising DOPC and CHEMS in the presence and absence of Compound 2. […]

| melting point [°C] | Structure (SMILES) | reporter gene expression ([1]; Example 22, FIG. 1, cholesterol/oleic acid totally substituted with Compound 2 at 40 mol %) | reporter gene expression levels ([1]; Example 22, FIG. 1, higher lipid to DNA ratios (above 2:1), exception: 5:1 lipid to DNA with 20 mol % Compound 2) | reporter gene expression ([1]; Example 22, FIG. 1, lipid to DNA ratio 2:1, Compound 2 content 1 to 40 mol %) | expression of β-galactosidase ([1]; Example 22, FIG. 1, lipopolyplexes with cholesterol, oleic acid and DOPC, 1 mol % Compound 2) | levels of β-galactosidase expression ([1]; Example 23, FIG. 2, DOPC/CHEMS lipopolyplexes, 20 mol % Compound 2, lipid to DNA ratios 0.6:1 to 5.5:1) | transfection enhancement via endosomolytic properties ([1]; overall conclusion from Examples 22 and 23) |
| --- | --- | --- | --- | --- | --- | --- | --- |
| 27 to 27.5 | CCCCCCCCCCCCCCCCCCOC[C@@H](COP(=O)(OCCCCCCCCCCCc1cc(CC(C)(C)C(=O)OC)cc(CC(C)(C)C(=O)OC)c1)Oc1ccccc1Cl)OCCCCCCCCCCCCCCCCCC (stereo partly shown) | – | – | – | – | – | – |
| – | CC(C)CCCC(C)C1CCC2C3CC=C4C[C@H](OP(=O)(O)OCCCCCCCCCCCc5cc(CC(C)(C)C(=O)O)cc(CC(C)(C)C(=O)O)c5)CC[C@]4(C)C3CC[C@]12C (stereo partly drawn) [Compound 2, 3,3′-(5-(11-(((((3R,10R,13R)-10,13-Dimethyl-17-(6-methylheptan-2-yl)-2,3,4,7,8,9,10,11,12,13,14,15,16,17-tetradecahydro-1H-cyclopenta[a]phenanthren-3-yl)oxy)(hydroxy)phosphoryl)oxy)undecyl)-1,3-phenylene)bis(2,2-dimethylpropanoic acid), ammonium salt] | highest | not significant | increased with increasing content of Compound 2 | little or no expression | high, significant levels | confirming the effectiveness of Compound 2 as a transfection enhancing agent |
